One data set deals with MOP (Homo sapiens, UniProt P35372). Put plainly: In vitro cAMP activity at MOP (Table 10). Format: cell-based. To be noted: cAMP inhibition, four-parameter regression. The method, then: (§1) The CP series compounds were assayed as follows: The assay was performed using a 96 well ½ area plate. The different cAMP standard solutions (3 μL/well) were plated in duplicate. The different concentrations of drug (3 μL/well), and control solutions (3 μL/well) were plated in triplicate. Following this, the acceptor bead mixture (3 μL/well) was added to the respective sets—either cAMP standard curve or the treatment. This was covered and incubated on the orbital shaker for 60 minutes at 37° C. Then, the donor bead mixture (10 μL/well) was added to each well. This was incubated at room temperature overnight on the orbital shaker.
Chain of MOP (P35372 whole entry): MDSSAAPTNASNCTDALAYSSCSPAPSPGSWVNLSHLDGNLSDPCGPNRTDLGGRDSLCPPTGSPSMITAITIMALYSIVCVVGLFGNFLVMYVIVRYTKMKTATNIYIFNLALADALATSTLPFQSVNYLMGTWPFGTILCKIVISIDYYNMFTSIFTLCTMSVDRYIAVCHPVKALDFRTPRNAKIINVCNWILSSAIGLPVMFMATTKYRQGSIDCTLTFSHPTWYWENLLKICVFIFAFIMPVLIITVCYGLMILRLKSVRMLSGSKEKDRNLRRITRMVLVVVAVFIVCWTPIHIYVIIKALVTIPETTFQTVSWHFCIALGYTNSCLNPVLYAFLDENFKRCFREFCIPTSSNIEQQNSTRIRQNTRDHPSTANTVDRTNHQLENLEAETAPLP
(§2) For DP-11-06 the assay was carried out in the same way as for the CP compounds except it was incubated for 30 mins at 37° C.
(§3) For the CP series compounds and DP-11-06, the Ensight® Multimode Plate Reader was used to quantify the fluorescence units of each plate. Before reading, each plate was centrifuged at 280 g for 30 seconds. Using GraphPad Prism7® Software, cAMP concentrations were determined by fit spline/LOWESS analysis. The cAMP standard curve was used for interpolation at this point. The cAMP concentrations were then normalized to the highest cAMP concentration recorded and analyzed by one-way ANOVA for multiple comparisons. The IC50 for each compound was then calculated using GraphPad Prism7® with non-linear regression analysis using four parameter curve fitting.
(§4) In this regard, a different regression analysis method was adopted on the above cAMP experiments. Particularly, a new non-linear regression (four-parameter) was adopted to better account for hill slope, thereby improving the regression fit.

The target in another data set is KOP (Homo sapiens, UniProt P41145). Put plainly: In vitro cAMP activity at KOP (Table 10). Format: cell-based. As to conditions: cAMP inhibition, four-parameter regression, normalised to U50488H. As to the method:
as §1, §2, §3
(§5) The results shown in Table 10 utilized rat plasma. • Note that DP-7-11 and CP5 represent the same compound, and DP-7-12 and CP6 are the same compound. In this regard, a different regression analysis method was adopted on the above cAMP experiments. Particularly, a new non-linear regression (four-parameter) was adopted to better account for hill slope, thereby improving the regression fit.

The nature of data set [1]: Plasma stability assay (Table 10). Format: in vitro ADME. To be noted: rat plasma, 37° C., 100 uM peptide, One Phase Decay; read-out: Stability (t1/2, mins) Plasma.
Source text: (§6) FIG. 20 is a series of graphs showing the stability of selected peptides in a trypsin (left-hand graphs) and plasma (right-hand graphs) stability assay (data normalised to concentration of each peptide at t=0, determined by LCMS, within each substrate; data analysed using One Phase Decay nonlinear regression in Prism software and each experiment performed in triplicate; mean+/−SEM);
as §5
(§7) Plasma was collected in house from adult mixed-gender Wistar rats, prepared using 2% EDTA as per standard practice. Peptides were added to rat plasma samples at 37° C. (in a water bath) with final concentrations of 100 uM (1:9 peptide in water:plasma) and a 50 μL sample was immediately taken and precipitated in 150 μL cold acetonitrile (9:1 ACN:water). This sample became the baseline, or t=0 min sample. Plasma with peptide was immediately returned to the water bath and subsequent 50 μL samples were taken at 5, 10, 15, 30, 60 and 120 min. At each time point, the 50 μL of plasma collected was immediately added to cold ACN. Each collected plasma sample in ACN was directly vortexed for 30 seconds and then centrifuged at room temperature (13K rpm, 5 min). 150 μL of the supernatant was taken and directly placed in glass HPLC vials for LCMS analysis.

Data set [2] deals with T1, bovine pancreatic trypsin (Bos taurus, UniProt P00760).
T1 construct: from tissue; host or cells: bovine pancreas
T1 sequence (P00760 24-246): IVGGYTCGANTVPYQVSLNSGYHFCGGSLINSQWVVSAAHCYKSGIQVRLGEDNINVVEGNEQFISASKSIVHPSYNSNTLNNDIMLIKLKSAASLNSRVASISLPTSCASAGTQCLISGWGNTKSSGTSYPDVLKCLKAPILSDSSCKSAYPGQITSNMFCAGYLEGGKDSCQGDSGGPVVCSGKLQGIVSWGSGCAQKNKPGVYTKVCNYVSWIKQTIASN
Put plainly: Trypsin stability assay (Table 10). Format: in vitro ADME. As to conditions: for half-life: bovine pancreatic trypsin 2.5 μg/mL, 37° C., One Phase Decay, read-out: Stability (t1/2, mins) Trypsin.
Source text: as §6
as §7, with “Plasma with peptide was immediately returned to the water bath and subsequent 50 μL samples were taken at 5, 10, 15, 30, 60 and 120 min.” left out
The protocol for the trypsin stability assay was very similar to the plasma stability assay discussed above. The only difference was the use of a trypsin solution (bovine pancreatic trypsin 2.5 μg/mL in NH4HCO3 buffer, pH approx. 8-8.5, 37° C.) instead of rat plasma. Volumes, times and preparation protocols were exactly as mentioned above.

A further data set has as its target DOP (Homo sapiens, UniProt P41143). Put plainly: In vitro cAMP activity at DOP (Table 10). Format: cell-based. As to conditions: cAMP inhibition, four-parameter regression. As to the method:
as §1, §2, §3, §4

In another data set the target is T2, trypsin (Bos taurus, UniProt P00760).
T2 sequence (P00760 24-246): T1 sequence (P00760 24-246)
Put plainly: Trypsin stability. As to conditions: for Trypsin: complete degradation within: 37° C. (Table 8). Format: in vitro ADME. As to the method:
(§8) Purified DP-7-11 (1 mg/mL) was dissolved in 0.1 M ammonium bicarbonate (NH4HCO3) buffer. To prepare a stock trypsin solution, 1 mg trypsin was dissolved in 50 mL of 0.1 M NH4HCO3 buffer. Equal volumes of the stock trypsin solution (62.5 μL) and DP-7-11 solution (62.5 μL) were incubated in 375 μL of 0.1M NH4HCO3 buffer in a 37° C. water bath. Aliquots of 100 μL were collected from this mixture at set time intervals of 0 min, up to 24 hours. Ice-cold acetonitrile containing 0.5% TFA was used to quench the reaction between DP-7-11 and trypsin at predetermined intervals, and just prior to HPLC or LC-MS analysis. The quenched samples were vortexed for 10 minutes followed by centrifugation at 12,000 rpm for a further 15 minutes. Supernatant was sampled and analysed using analytical RP-HPLC or LC-MS. Samples without trypsin acted as negative controls and were sampled at two intervals of 0 hour and 6 hours.
(§9) As used in this serum and trypsin stability discussion, the term ‘degraded completely’ relates to the relevant compound being completely absent when tested. In other words, the compound being tested is not observed when tested.
(§10) The serum and trypsin stability of DP-7-11 and DP-7-12 were tested (in some instances again) using LC-MS. The LC-MS utilized in this study was more sensitive than the LC-MS utilized in the above tests.

A further data set can be described thus: Serum stability. Format: in vitro ADME. To be noted: rat, serum, 37° C., LC-MS (Table 8). The method, then:
as §8
Serum stability of DP-7-11 was also performed. In this regard, rat serum replaced trypsin and NH4HCO3 buffer. Water was used as negative control in place of serum, with the stability study performed in an identical fashion to the trypsin study. […] DP-11-00 and DP-11-06 were tested in a similar manner.
as §9
This appears to indicate the improved metabolic stability of the present invention.
as §10

*1 amine or outer side, *2 acyl side, *3 side chain or, on linkers, in order; H or OH if unused. Where a SMILES comes first, the peptide text is derived from it. Bridges are numbered along the chain shown (N, C = ends). [ ]: non-standard residue; d: D form. ξ: configuration not given here. Phe(4-NO2) = N[C@@H](Cc1ccc([N+](=O)[O-])cc1)C(=O)O; Phe(4-Cl) = N[C@@H](Cc1ccc(Cl)cc1)C(=O)O; NHCH2CMe2S = CC(C)(CN[*:1])S[*:2]; NMeR = CN[C@@H](CCCNC(=N)N)C(=O)O; X1 = CC(C)(CN[*:2])S[*:1]; ξC = NC(CS)C(=O)O; Sar = CNCC(=O)O

Chain of KOP (P41145 whole entry): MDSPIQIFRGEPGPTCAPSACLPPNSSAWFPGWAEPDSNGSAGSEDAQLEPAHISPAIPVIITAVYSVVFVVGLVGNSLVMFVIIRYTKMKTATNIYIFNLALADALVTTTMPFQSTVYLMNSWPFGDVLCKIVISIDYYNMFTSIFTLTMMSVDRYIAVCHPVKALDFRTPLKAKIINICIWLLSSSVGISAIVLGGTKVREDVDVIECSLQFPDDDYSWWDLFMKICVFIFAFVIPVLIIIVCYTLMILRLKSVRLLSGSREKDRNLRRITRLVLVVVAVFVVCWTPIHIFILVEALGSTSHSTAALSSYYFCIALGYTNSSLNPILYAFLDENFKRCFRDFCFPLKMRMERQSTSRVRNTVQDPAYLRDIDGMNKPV
Chain of DOP (P41143 whole entry): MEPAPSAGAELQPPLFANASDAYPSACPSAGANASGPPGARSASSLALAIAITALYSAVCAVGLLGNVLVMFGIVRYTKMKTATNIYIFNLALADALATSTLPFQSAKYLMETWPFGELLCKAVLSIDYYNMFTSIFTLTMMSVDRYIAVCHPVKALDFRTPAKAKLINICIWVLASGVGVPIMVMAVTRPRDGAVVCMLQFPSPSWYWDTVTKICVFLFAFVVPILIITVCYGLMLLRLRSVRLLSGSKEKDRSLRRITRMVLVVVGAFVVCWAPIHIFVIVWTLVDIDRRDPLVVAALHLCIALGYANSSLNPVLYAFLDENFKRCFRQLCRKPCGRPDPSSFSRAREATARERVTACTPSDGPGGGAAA

As to `CC1(C)CNC(=O)C[C@@H](C(=O)N[C@@H](CCCNC(=N)N)C(=O)N[C@@H](CCCNC(=N)N)C(N)=O)NC(=O)[C@H](Cc2ccccc2)NC(=O)CNC(=O)C(NC(=O)[C@@H](N)Cc2ccc(O)cc2)CSS1` (stereo partly drawn) [CP1, c(Tyr-SSa-Gly-Phe-L-Asp-Arg-Arg)], the 50% effective concentration (EC50) (as a rule, the concentration that produces a half-maximal response) at MOP was 4530 nM; on KOP, 1270 nM; at DOP, above 10000 nM. Besides, the half-life in data set [1] and in data set [2] was below 0.01 min in each case.
As to `CC1(C)CNC(=O)C[C@@H](C(=O)N[C@@H](CCCNC(=N)N)C(=O)N[C@@H](CCCNC(=N)N)C(N)=O)NC(=O)[C@H](Cc2ccccc2)NC(=O)C(NC(=O)CNC(=O)[C@@H](N)Cc2ccc(O)cc2)CSS1` (stereo partly drawn) [CP3, c(Tyr-Gly-SSa-Phe-Asp-Arg-Arg)] (H-YG[ξC]FDRR-NH2; linker 3-5 via X1; N-terminus assumed), the EC50 on MOP, at KOP and on DOP was above 10000 nM each time.
Consider `CC1(C)CNC(=O)C[C@H](NC(=O)CNC(=O)[C@@H](N)Cc2ccc(O)cc2)C(=O)N[C@@H](Cc2ccccc2)C(=O)NC(C(=O)N[C@@H](CCCNC(=N)N)C(=O)N[C@@H](CCCNC(=N)N)C(N)=O)CSS1` (stereo partly drawn) [CP4, c(Tyr-Gly-Asp-Phe-SSa-Arg-Arg)] (H-YGDF[ξC]RR-NH2; linker 3-5 via NHCH2CMe2S; N-terminus assumed), for which the concentration giving a half-maximal response (EC50) on MOP, at KOP and at DOP was above 10000 nM throughout.
For `CC(C)C[C@H](NC(=O)[C@H](Cc1ccc(Cl)cc1)NC(=O)CN(C)C(=O)[C@@H](N)Cc1ccc(O)cc1)C(=O)N[C@@H](CCCNC(=N)N)C(=O)N[C@H](CCCNC(=N)N)C(=O)NC1CSSC(C)(C)CNC(=O)C[C@@H](C(=O)N[C@@H](CCCCN)C(N)=O)NC(=O)[C@H](CCCNC(=N)N)NC1=O` (stereo partly drawn) [CP10, c(Tyr-Sar-(p-Cl-Phe)-Leu-Arg-D(Arg)-SSa-Arg-Asp-Lys)] (H-Y[Sar][Phe(4-Cl)]LR[dR][ξC]RDK-NH2; linker 7-9 via X1; N-terminus assumed), the EC50 at MOP worked out at 1600 nM; at KOP, 0.94 nM; at DOP, 127 nM. The half-life in data set [2] came to 2.3 min.
On KOP, `CC(C)C[C@H](NC(=O)[C@H](Cc1ccc([N+](=O)[O-])cc1)NC(=O)CN(C)C(=O)[C@@H](N)Cc1ccc(O)cc1)C(=O)N[C@@H](CCCNC(=N)N)C(=O)N(C)[C@@H](CCCNC(=N)N)C(=O)NC1CSSC(C)(C)CNC(=O)C[C@@H](C(=O)N[C@@H](CCCCN)C(N)=O)NC(=O)[C@H](CCCNC(=N)N)NC1=O` (stereo partly drawn) [CP12, c(Tyr-Sar-(p-NO2-Phe)-Leu-Arg-NMA-SSa-Arg-Asp-Lys)] (H-Y[Sar][Phe(4-NO2)]LR[NMeR][ξC]RDK-NH2; linker 7-9 via X1; N-terminus assumed) returned a concentration giving a half-maximal response (EC50) of 7.5 nM. The half-life in data set [1] was below 0.01 min; in data set [2], 0.019 min.
For `CC(C)C[C@H](NC(=O)[C@H](Cc1ccccc1)NC(=O)CNC(=O)CNC(=O)[C@@H](N)Cc1ccc(O)cc1)C(=O)N[C@@H](CCCNC(=N)N)C(=O)N[C@@H](CCCNC(=N)N)C(N)=O` [DP-7-00, Tyr-Gly-Gly-Phe-Leu-Arg-Arg], at trypsin, the “Susceptibility to trypsin digestion” value is recorded as “highly susceptible” and the “Trypsin: complete degradation within” value is “within 1 h”.
Regarding `CC1(C)CNC(=O)C[C@H](C(=O)N[C@@H](CCCNC(=N)N)C(=O)N[C@@H](CCCNC(=N)N)C(N)=O)NC(=O)[C@H](Cc2ccccc2)NC(=O)C(NC(=O)CNC(=O)[C@@H](N)Cc2ccc(O)cc2)CSS1` (stereo partly drawn) [DP-7-13, c(Tyr-Gly-SSa-Phe-D(Asp)-Arg-Arg)] (H-YG[ξC]F[dD]RR-NH2; linker 3-5 via X1; N-terminus assumed), the half-life in data set [1] and in data set [2] was below 0.01 min each time.
Take `CC1(C)CNC(=O)C[C@@H](NC(=O)CNC(=O)[C@@H](N)Cc2ccc(O)cc2)C(=O)N[C@@H](Cc2ccccc2)C(=O)N[C@H](C(=O)N[C@@H](CCCNC(=N)N)C(=O)N[C@@H](CCCNC(=N)N)C(N)=O)CSS1` [DP-7-14, c(Tyr-Gly-D(Asp)-Phe-SSa-Arg-Arg)] (H-YG[dD]FCRR-NH2; linker 3-5 via NHCH2CMe2S): the half-life in data set [1] and in data set [2] was below 0.01 min throughout.
`CC[C@H](C)[C@H](NC(=O)[C@H](CCCN=C(N)N)NC(=O)[C@H](CCCN=C(N)N)NC(=O)[C@H](CC(C)C)NC(=O)[C@H](Cc1ccccc1)NC(=O)CNC(=O)CNC(=O)[C@@H](N)Cc1ccc(O)cc1)C(=O)N[C@@H](CCCN=C(N)N)C(=O)N1CCC[C@H]1C(=O)N[C@@H](CCCCN)C(N)=O` [DP-11-00]: at trypsin, the “Susceptibility to trypsin digestion” value is listed as “highly susceptible” and the “Trypsin: complete degradation within” value is given as “within 1 h”.
As for `CC[C@H](C)[C@H](NC(=O)C1CSSC(C)(C)CNC(=O)C[C@@H](NC(=O)[C@H](Cc2ccccc2)NC(=O)CNC(=O)CNC(=O)[C@@H](N)Cc2ccc(O)cc2)C(=O)N[C@@H](CCCNC(=N)N)C(=O)N1)C(=O)N[C@@H](CCCNC(=N)N)C(=O)N1CCC[C@H]1C(=O)N[C@@H](CCCCN)C(N)=O` (stereo partly drawn) [DP-11-06, c(Tyr-Gly-Gly-Phe-D(Asp)-Arg-SSa-Ile-Arg-Pro-Lys)] (H-YGGF[dD]R[ξC]IRPK-NH2; linker 5-7 via NHCH2CMe2S; N-terminus assumed), on KOP, the EC50 came out at 0.75 nM. The half-life is 30 min in data set [1], 360 min in data set [2] and 1800 s in “Serum stability”. Further, the “Peptide remained in trypsin after 360 minutes” value in data set [2] (n = 1) is given as “# (more than 90% remained after 360 minutes)”.
